The source made the active and inactive calls. The rule behind the calls is not given here.
How the values were obtained:
[1] = Activation of quorum sensing system in Pseudomonas aeruginosa JP1 assessed as increase in pyocyanin production at 100 uM measured after 6 hrs relative to control; conditions: for fold change (FC): filed as activator
[2] = system: MDA-MB-231; experiment: Synergistic anticancer activity against human MDA-MB-231 cells assessed as reduction in cell viability at 25 uM pretreated for 3 hrs followed by TRAIL stimulation measured after 24 hrs; assay type: functional; set-up: unit not given here; conditions: time 27 hrs
[3] = system: MDA-MB-231; experiment: Synergistic anticancer activity against human MDA-MB-231 cells assessed as reduction in cell viability at 50 uM pretreated for 3 hrs followed by TRAIL stimulation measured after 24 hrs; assay type: functional; set-up: unit not given here; conditions: time 27 hrs
[4] = system: Vibrio harveyi; experiment: Activation of quorum sensing in Vibrio harveyi from 10 to 200 uM after 7 hrs by luminescence method; conditions: filed as activator, dose 10-200 µM
[5] = target: T1, Transcriptional activator protein LasR (Pseudomonas aeruginosa (strain ATCC 15692 / PAO1 / 1C / PRS 101 / LMG12228)) (UniProt P25084); experiment: Binding affinity to wild type Pseudomonas aeruginosa LasR expressed in Escherichia coli at 100 uM measured after 6 hrs by luminescence assay; conditions: filed as activator
T1 sequence (whole entry): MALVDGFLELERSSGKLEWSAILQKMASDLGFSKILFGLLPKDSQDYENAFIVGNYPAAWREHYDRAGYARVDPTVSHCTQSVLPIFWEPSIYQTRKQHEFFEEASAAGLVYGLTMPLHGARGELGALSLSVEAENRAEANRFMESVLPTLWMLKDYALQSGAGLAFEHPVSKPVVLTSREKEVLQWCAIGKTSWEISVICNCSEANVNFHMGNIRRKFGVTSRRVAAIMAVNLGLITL

[6] = system: Pseudomonas aeruginosa; experiment: Binding affinity to Pseudomonas aeruginosa LasR Y56F mutant expressed in Escherichia coli at 100 uM measured after 6 hrs by luminescence assay; conditions: filed as activator
[7] = system: Pseudomonas aeruginosa; experiment: Binding affinity to Pseudomonas aeruginosa LasR W60F mutant expressed in Escherichia coli at 100 uM measured after 6 hrs by luminescence assay; conditions: filed as activator
[8] = system: Pseudomonas aeruginosa; experiment: Binding affinity to Pseudomonas aeruginosa LasR D73N mutant expressed in Escherichia coli at 100 uM measured after 6 hrs by luminescence assay; conditions: filed as activator
[9] = system: Vibrio harveyi; experiment: Activation of quorum sensing in Vibrio harveyi upto 100 uM after 7 hrs by luminescence method; conditions: filed as activator, dose microM <=100, time 7.0 hrs
[10] = system: MDA-MB-231; experiment: Induction of apoptosis in human MDA-MB-231 cells assessed as increase in cleaved PARP level at 50 uM by Western blot analysis; assay type: functional, cell-based

Row | fold change (FC) [1] | SMILES | Activity [2] | Activity [3] | other results
1 |  | C#CCCCC[C@@H](C)C(=O)NCCCC[C@@H]1NC(=O)C=C1OC | 0.02 | 0 | Activity [1]: inactive
2 |  | CCCCCCCCCC(=O)CC(=O)N[C@H]1CCOC1=O | 0.05 | -0.07 | 
3 |  | C=CCCCC[C@@H](C)C(=O)NCCCC[C@H]1C(OC)=CC(=O)N1C(=O)[C@H](C)CCCCC=C | 0.31 | 0.08 | Activity [9]: Active
4 | 4 | C=CCCCC[C@@H](C)C(=O)N1C(=O)C=C(OC)[C@@H]1CCCCNC(=O)OC(C)(C)C | 0.06 | 0.02 | 
5 |  | CCCCCC[C@@H](C)C(=O)NCCCC[C@H]1C(OC)=CC(=O)N1C(=O)[C@H](C)CCCCCC | 0.31 | 0.23 | 
6 | 3 | C#CCCCC[C@@H](C)C(=O)N1C(=O)C=C(OC)[C@@H]1CCCCNC(=O)OC(C)(C)C | 0.18 | 0.05 | Activity [4]: Active
7 | 5 | CCCCCC[C@@H](C)C(=O)N1C(=O)C=C(OC)[C@@H]1CCCCNC(=O)OC(C)(C)C | 0.26 | 0.14 | Activity [10]: Active

Row | SMILES | fold change (FC) [1] | Activity [2] | Activity [3] | other results
8 | C#CCCCC[C@@H](C)C(=O)NCCCC[C@H]1C(OC)=CC(=O)N1C(=O)[C@H](C)CCCCC#C | 3 | 0.08 | 0.01 | Activity [4]: Active; Activity [5]: Active; Activity [6]: Active; Activity [7]: Active; Activity [8]: Active

From ChEMBL document CHEMBL4842305, “Bifunctional Doscadenamides Activate Quorum Sensing in Gram-Negative Bacteria and Synergize with TRAIL to Induce Apoptosis in Cancer Cells” (2021)
